# Results reported in patent publication US20250361210A1, “3,4-DIHYDROQUINOLIN-2(1H)-ONE COMPOUND” (Kissei Pharmaceutical Co., Ltd., priority 2022, published 2025).
# Target: T1, human TSHR (Homo sapiens, UniProt P16473)
# T1 construct: expressed in transfected cells
# Assay: Antagonist activity using TSH-induced cAMP production in human TSHR-stably expressing CHO cells
# Format: cell-based
# Settings: human TSH 50 ng/mL
# Procedure: Measurement of Antagonist Activity Using TSH-Induced cAMP Production in Human TSHR-Stably Expressing CHO Cells as an Indicator
# The human TSHR gene sequence (reference number NM_000369.2) was inserted into the multicloning site of pcDNA3.1(+). The constructed plasmid vector was introduced into CHO cells using the lipofection method to establish human TSHR-stably expressing CHO cells. The obtained cells were seeded at 5×10^4 cells/well in a 96-well poly-D-lysine-coated plate, and cultured in an F12 culture medium containing 10% FBS, 400 μg/mL of G418, 50 U/mL of penicillin and 50 μg/mL of streptomycin under conditions of 37° C. and 5% CO2 for 1 day. After the culture medium was removed, the cells were washed twice with 100 μL of an assay buffer solution (Hanks' Balanced Salt Solution containing 20 mM HEPES and 1 mM IBMX) per well. 30 μL of a test compound-containing assay buffer solution was added to the well and incubated at room temperature for 15 minutes. Then, 30 μL of an assay buffer solution containing human TSH (final concentration 50 ng/mL, R&D Systems, Inc.) was added, and incubated at 37° C. for 1 hour. The supernatant was removed, a Lysis and Detection Buffer 2 (Cisbio) was added, and the mixture was incubated at room temperature for 1 hour to prepare a cell lysate. According to the instruction manual of a cAMP Gs HiRange kit (Cisbio), the cell lysate, d2-labeled cAMP and anti-cAMP Europium Cryptate labeled antibodies (Cisbio) were reacted in a 384-well white microplate. Then, a fluorescence intensity ratio (measurement wavelength 665 nm/620 nm) was measured using a multi-plate reader (PHERAstar FSX, BMG LABTECH, Japan). The fluorescence intensity ratio of each sample was converted to a cAMP content using a standard curve. The cAMP content was converted as a percentage of the control value to calculate the cAMP production rate. The CAMP production rate was plotted against the test compound concentration using Prism (Graph Pad Software Inc.) to calculate the IC50 value. The IC50 of each test compound is shown in the above tables. In the tables, IC50<0.5 μM: A, 0.5 μM≤IC50<3.0 μM: B, 3.0 μM≤IC50<30 μM: C are shown.
# T1 sequence (P16473 21-764): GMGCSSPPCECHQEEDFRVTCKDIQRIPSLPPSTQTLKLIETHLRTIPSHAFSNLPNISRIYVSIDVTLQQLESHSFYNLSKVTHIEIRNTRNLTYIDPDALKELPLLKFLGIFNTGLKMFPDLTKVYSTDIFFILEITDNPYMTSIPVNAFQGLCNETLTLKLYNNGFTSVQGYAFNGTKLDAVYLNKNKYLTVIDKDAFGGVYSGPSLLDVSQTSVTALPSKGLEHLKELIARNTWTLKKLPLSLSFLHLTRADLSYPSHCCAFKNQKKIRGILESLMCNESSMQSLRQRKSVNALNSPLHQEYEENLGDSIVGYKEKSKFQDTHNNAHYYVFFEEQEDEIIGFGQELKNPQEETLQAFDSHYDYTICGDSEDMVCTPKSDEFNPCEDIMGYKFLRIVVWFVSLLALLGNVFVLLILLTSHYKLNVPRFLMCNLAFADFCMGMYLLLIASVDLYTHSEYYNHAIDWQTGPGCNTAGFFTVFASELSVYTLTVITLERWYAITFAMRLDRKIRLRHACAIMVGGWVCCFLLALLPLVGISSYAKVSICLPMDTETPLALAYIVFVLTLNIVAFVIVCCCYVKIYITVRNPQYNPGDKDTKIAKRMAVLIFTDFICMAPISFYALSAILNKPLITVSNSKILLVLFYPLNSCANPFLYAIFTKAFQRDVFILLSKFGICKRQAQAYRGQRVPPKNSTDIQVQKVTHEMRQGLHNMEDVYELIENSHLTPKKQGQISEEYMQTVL
row,IC50 [nM],Compound
1,500 to 3000,CN1C(=O)[C@H](NC(N)=O)Cc2ccc(F)c(Oc3ccccc3C(F)(F)F)c21 [Example 36]
2,< 500,"CN1C(=O)[C@H](NC(N)=O)Cc2ccc(Cl)c(Oc3cc(F)ccc3Cl)c21 [Example 37, ((3R)-7-chloro-8-(2-chloro-5-fluorophenoxy)-1-methyl-2-oxo-1,2,3,4-tetrahydroquinolin-3-yl)urea]"
3,< 500,"Cc1ccc2c(c1Oc1ccccc1C(F)F)N(C)C(=O)[C@H](NC(N)=O)C2 [Example 38, ((3R)-8-(2-(difluoromethyl)phenoxy)-1,7-dimethyl-2-oxo-1,2,3,4-tetrahydroquinolin-3-yl)urea]"
4,< 500,"Cc1ccc2c(c1Oc1cc(F)ccc1Cl)N(C)C(=O)[C@H](NC(N)=O)C2 [Example 39, ((3R)-8-(2-chloro-5-fluorophenoxy)-1,7-dimethyl-2-oxo-1,2,3,4-tetrahydroquinolin-3-yl)urea]"
5,< 500,"CN1C(=O)[C@H](NC(N)=O)Cc2cccc(Oc3ccccc3Cl)c21 [Example 40, ((3R)-8-(2-chlorophenoxy)-1-methyl-2-oxo-1,2,3,4-tetrahydroquinolin-3-yl)urea]"
6,500 to 3000,CN1C(=O)[C@H](NC(N)=O)Cc2cccc(OC3CCCCC3)c21 [Example 41]
7,500 to 3000,"CN1C(=O)[C@H](NC(N)=O)Cc2cccc(OC3CCCC3)c21 [Example 42, ((3R)-8-(cyclopentyloxy)-1-methyl-2-oxo-1,2,3,4-tetrahydroquinolin-3-yl)urea]"
8,500 to 3000,"CN1C(=O)[C@H](NC(N)=O)Cc2ccc(F)c(Oc3ccccc3C(F)F)c21 [Example 43, ((3R)-8-(2-(difluoromethyl)phenoxy)-7-fluoro-1-methyl-2-oxo-1,2,3,4-tetrahydroquinolin-3-yl)urea]"
9,< 500,"CN1C(=O)[C@H](NC(N)=O)Cc2ccc(F)c(Oc3cc(F)ccc3Cl)c21 [Example 44, ((3R)-8-(2-chloro-5-fluorophenoxy)-7-fluoro-1-methyl-2-oxo-1,2,3,4-tetrahydroquinolin-3-yl)urea]"
10,< 500,"Cc1ccc2c(c1Oc1ccccc1F)N(C)C(=O)[C@H](NC(N)=O)C2 [Example 45, ((3R)-8-(2-fluorophenoxy)-1,7-dimethyl-2-oxo-1,2,3,4-tetrahydroquinolin-3-yl)urea]"
11,< 500,"Cc1ccc2c(c1Oc1cccc(F)c1)N(C)C(=O)[C@H](NC(N)=O)C2 [Example 46, ((3R)-8-(3-fluorophenoxy)-1,7-dimethyl-2-oxo-1,2,3,4-tetrahydroquinolin-3-yl)urea]"
12,< 500,"Cc1ccccc1Oc1cccc2c1N(C)C(=O)[C@H](NC(N)=O)C2 [Example 47, ((3R)-1-methyl-8-(2-methylphenoxy)-2-oxo-1,2,3,4-tetrahydroquinolin-3-yl)urea]"
13,< 500,"Cc1ccc(F)cc1Oc1cccc2c1N(C)C(=O)[C@H](NC(N)=O)C2 [Example 48, ((3R)-8-(5-fluoro-2-methylphenoxy)-1-methyl-2-oxo-1,2,3,4-tetrahydroquinolin-3-yl)urea]"
14,< 500,"CN1C(=O)[C@H](NC(N)=O)Cc2ccc(C(F)(F)F)c(Oc3ccccc3F)c21 [Example 49, ((3R)-8-(2-fluorophenoxy)-1-methyl-2-oxo-7-(trifluoromethyl)-1,2,3,4-tetrahydroquinolin-3-yl)urea]"
15,< 500,"Cc1ccc2c(c1Oc1cc(F)ccc1F)N(C)C(=O)[C@H](NC(N)=O)C2 [Example 50, ((3R)-8-(2,5-difluorophenoxy)-1,7-dimethyl-2-oxo-1,2,3,4-tetrahydroquinolin-3-yl)urea]"
16,< 500,"CN1C(=O)[C@H](NC(N)=O)Cc2cccc(Cc3ccccc3Cl)c21 [Example 51, ((3R)-8-((2-chlorophenyl)methyl)-1-methyl-2-oxo-1,2,3,4-tetrahydroquinolin-3-yl)urea]"
17,< 500,CN1C(=O)[C@H](NC(N)=O)Cc2cccc(Cc3cc(F)ccc3Cl)c21 [Example 52]
18,< 500,"CN1C(=O)[C@H](NC(N)=O)Cc2cccc(Cc3ccccc3C(F)(F)F)c21 [Example 53, ((3R)-1-methyl-2-oxo-8-((2-(trifluoromethyl)phenyl)methyl)-1,2,3,4-tetrahydroquinolin-3-yl)urea]"
19,< 500,"Cc1ccccc1Cc1cccc2c1N(C)C(=O)[C@H](NC(N)=O)C2 [Example 54, ((3R)-1-methyl-8-((2-methylphenyl)methyl)-2-oxo-1,2,3,4-tetrahydroquinolin-3-yl)urea]"

row,IC50 [nM],Compound
1,< 500,"CN1C(=O)[C@H](NC(N)=O)Cc2cccc(Cc3ccccc3C(F)F)c21 [Example 55, ((3R)-8-((2-(difluoromethyl)phenyl)methyl)-1-methyl-2-oxo-1,2,3,4-tetrahydroquinolin-3-yl)urea]"
2,< 500,CN1C(=O)[C@H](NC(N)=O)Cc2ccc(F)c(Cc3cc(F)ccc3Cl)c21 [Example 56]
3,< 500,"CN1C(=O)[C@H](NC(N)=O)Cc2ccc(Cl)c(Cc3cc(F)ccc3Cl)c21 [Example 57, ((3R)-7-chloro-8-((2-chloro-5-fluorophenyl)methyl)-1-methyl-2-oxo-1,2,3,4-tetrahydroquinolin-3-yl)urea]"
4,< 500,"Cc1ccc2c(c1Cc1ccccc1Cl)N(C)C(=O)[C@H](NC(N)=O)C2 [Example 58, ((3R)-8-((2-chlorophenyl)methyl)-1,7-dimethyl-2-oxo-1,2,3,4-tetrahydroquinolin-3-yl)urea]"
5,< 500,"Cc1ccc2c(c1Cc1cc(F)ccc1Cl)N(C)C(=O)[C@H](NC(N)=O)C2 [Example 59, ((3R)-8-((2-chloro-5-fluorophenyl)methyl)-1,7-dimethyl-2-oxo-1,2,3,4-tetrahydroquinolin-3-yl)urea]"
6,< 500,"CN1C(=O)[C@H](NC(N)=O)Cc2ccc(F)c(Cc3ccccc3Cl)c21 [Example 60, ((3R)-8-((2-chlorophenyl)methyl)-7-fluoro-1-methyl-2-oxo-1,2,3,4-tetrahydroquinolin-3-yl)urea]"
7,< 500,"CN1C(=O)[C@H](NC(N)=O)Cc2ccc(F)c(Cc3ccccc3C(F)(F)F)c21 [Example 61, ((3R)-7-fluoro-1-methyl-2-oxo-8-((2-(trifluoromethyl)phenyl)methyl)-1,2,3,4-tetrahydroquinolin-3-yl)urea]"
8,< 500,"CN1C(=O)[C@H](NC(N)=O)Cc2ccc(Cl)c(Cc3ccccc3Cl)c21 [Example 62, ((3R)-7-chloro-8-((2-chlorophenyl)methyl)-1-methyl-2-oxo-1,2,3,4-tetrahydroquinolin-3-yl)urea]"
9,< 500,"Cc1ccccc1Cc1c(F)ccc2c1N(C)C(=O)[C@H](NC(N)=O)C2 [Example 63, ((3R)-7-fluoro-1-methyl-8-((2-methylphenyl)methyl)-2-oxo-1,2,3,4-tetrahydroquinolin-3-yl)urea]"
10,500 to 3000,"CN1C(=O)[C@H](NC(N)=O)Cc2ccc(Cl)c(Cc3ccccc3F)c21 [Example 64, ((3R)-7-chloro-8-((2-fluorophenyl)methyl)-1-methyl-2-oxo-1,2,3,4-tetrahydroquinolin-3-yl)urea]"
11,500 to 3000,CN1C(=O)[C@H](NC(N)=O)Cc2ccc(Cl)c(Cc3cccc(F)c3)c21 [Example 65]
12,3000 to 30000,Cc1ccc2c(c1Cc1cccc(F)c1)N(C)C(=O)[C@H](NC(N)=O)C2 [Example 67]
13,< 500,"Cc1ccc(F)cc1Cc1cccc2c1N(C)C(=O)[C@H](NC(N)=O)C2 [Example 68, ((3R)-8-((5-fluoro-2-methylphenyl)methyl)-1-methyl-2-oxo-1,2,3,4-tetrahydroquinolin-3-yl)urea]"
14,< 500,"CN1C(=O)[C@H](NC(N)=O)Cc2ccc(Cl)c(Oc3cc(F)ccc3F)c21 [Example 69, ((3R)-7-chloro-8-(2,5-difluorophenoxy)-1-methyl-2-oxo-1,2,3,4-tetrahydroquinolin-3-yl)urea]"
15,< 500,"Cc1ccc2c(c1Oc1cc(F)ccc1C(F)F)N(C)C(=O)[C@H](NC(N)=O)C2 [Example 70, ((3R)-8-(2-(difluoromethyl)-5-fluorophenoxy)-1,7-dimethyl-2-oxo-1,2,3,4-tetrahydroquinolin-3-yl)urea]"
16,< 500,"CN1C(=O)[C@H](NC(N)=O)Cc2ccc(CO)c(Oc3cc(F)ccc3Cl)c21 [Example 71, ((3R)-8-(2-chloro-5-fluorophenoxy)-7-(hydroxymethyl)-1-methyl-2-oxo-1,2,3,4-tetrahydroquinolin-3-yl)urea]"
17,< 500,"CN1C(=O)[C@H](NC(N)=O)Cc2ccc(C(F)F)c(Oc3cc(F)ccc3Cl)c21 [Example 72, ((3R)-8-(2-chloro-5-fluorophenoxy)-7-(difluoromethyl)-1-methyl-2-oxo-1,2,3,4-tetrahydroquinolin-3-yl)urea]"
18,< 500,"CN1C(=O)[C@H](NC(N)=O)Cc2ccc(CF)c(Oc3cc(F)ccc3Cl)c21 [Example 73, ((3R)-8-(2-chloro-5-fluorophenoxy)-7-(fluoromethyl)-1-methyl-2-oxo-1,2,3,4-tetrahydroquinolin-3-yl)urea]"
